Reference: patent US8916595B2, “Plant disease controlling composition and method for controlling plant disease” (Sumitomo Chemical Company, Limited, priority 2010, dated 2014)

Tested on: gray mold fungus (Botrytis cinerea)
Assay: Cucumber leaf disk preventive test against gray mold fungus (spray inoculation, onset area rate)
Format: in vivo
Details: single compound, 15° C., four days
Experimental: True leaf of cucumber is punched out with cork borer to 13 mm in diameter to prepare a leaf disk. In 24 well microwell plate that is dispensed with 1 ml 0.8% water agar, the leaf disk is placed such that the upper side of the leaf is in an upward direction. Thereto is added 20 micro liter a testing solution prepared by mixing a dimethyl sulfoxide solution of the present compound (racemate) and a dimethyl sulfoxide solution of benthiavalicarb to a predetermined concentration to treat the leaf disk.
After confirming that the testing medical solution is dried, conidium of gray mold fungus (Botrytis cinerea) is suspended into potato dextrose broth (DIFCO) in a density of about 10^5 conidium/mL and is then subjected to a spray inoculation. After leaving to stand the leaf disk in a growth chamber set up at 15° C. for four days, an onset area on the leaf is measured and then calculated an onset area rate (hereinafter, referred to as an onset area rate of treated group).
The same operation is carried out with 20 micro liter water instead of 20 micro liter a testing medicine solution to calculate an onset area rate (hereinafter, referred to an onset area rate of non-treated group).
A preventive value is calculated from the above onset area rate of treated group and the onset area rate of non-treated group by the following equation: Preventive value(%)=100×(A−B)/A
A: an onset area rate of treated group
B: an onset area rate of non-treated group
The same operations as described in Test Example 1 are carried out with iprovalicarb instead of benthiavalicarb, so as to calculate a preventive value.
Also for comparison, the same operations as described in Test Example 1 are carried out with the exception that the testing medicine solution is substituted with a predetermined concentration of each dimethyl sulfoxide solution of the present compound (racemate) or iprovalicarb, so as to calculate respective preventive values.
For comparison, the same operations as described in Test Example 1 are carried out with the exception that the testing medicine solution is substituted with a predetermined concentration of a dimethyl sulfoxide solution of benthiavalicarb, so as to calculate a preventive value.

[1] = treatment concentration 0.5 ppm
[2] = treatment concentration 5.0 ppm

SMILES	preventive value (%) [1]	preventive value (%) [2]
CC(C)[C@H](NC(=O)O)C(=O)N[C@H](C)c1nc2ccc(F)cc2s1 [benthiavalicarb]	0%	15%
Cc1ccc(C(C)NC(=O)[C@@H](NC(=O)OC(C)C)C(C)C)cc1 (stereo partly shown) [iprovalicarb]	0%	15%
